Several values for one entry are separate records, joined by “and”; a condition that tells them apart may be missing. Identical values can stand only once. Some results are limits rather than exact numbers.

Data set [1] can be described thus: Fluorescence recovery after photobleaching (FRAP), diffusion coefficient. It counts as physicochemical. As to the method: FRAP was performed on a Nikon confocal microscope. […] A bleaching and background region of interest (ROI) was used to selectively photobleach an area of the cubic phase and the fluorescence recovery curve was recorded with time. The excitation/emission wavelengths used were 553/627 nm for the octadecyl rhodamine B chloride. […] […] The open source Matlab code frap_analysis_2p5 was used to determine diffusion coefficients μ from FRAP data.

Data set [2] is described as follows: in vivo. The conditions noted are these: male, Sprague-Dawley, rat, 1 mg/kg. Details: species or system Sprague Dawley rats. As to the method: Four male Sprague Dawley rats were used as controls. Each rat was anaesthetised with isoflurane followed by preparation of the saphenous vein. The rats were given 1 mg/kg of meropenem via SC injection, immediately following this they were placed on a heat-mat until they regained consciousness, before being housed in pairs in boxes. Blood collection (150 μl) was taken via the saphenous vein at 0, 30-, 70-, 120-, 180-, 240- and 360-mins post-injection. The blood concentration of the protein in the blood was tested using the relevant ELISA kit for meropenem.
(§1) Eight male Sprague Dawley rats were used. Each rat was anaesthetised with isoflurane followed by preparation of the saphenous vein and the first blood collection (150 μl). An enteric capsule with a thick polymer coating of approximately 160 μm containing 1 mg/kg of meropenem encapsulated in MO lipid cubic phase was then introduced via oral gavage into the rat stomach. Immediately following this they were placed on a heat-mat until they regained consciousness, before being housed in pairs. Blood collection (150 μl) was taken via the saphenous vein at 0, 35-, 50-, 120-, 180-, 240- and 360-mins post-injection.
(§2) All data are analysed on a Clariostar Plate Reader to determine concentration against a standard curve for the relevant drug.
(§3) Concentrations provided in FIGS. 10-13 are the measured concentration of the drug in the blood plasma (determined using specific Elisa kits) and are in units of ng/ml. The initial drug concentration measured at the 0 time point has been set to zero in each case and other data scaled relative to this.

Data set [3] has as its system blood glucose of diabetic Sprague Dawley rats. The data set is described as follows: Blood glucose levels in STZ-induced diabetic rats after insulin by SC injection or oral capsule. It counts as in vivo. The conditions noted are these: for time over which BG levels continued to decrease: 1 IU SC injection; for Percentage of SC injection (%), efficacy of oral delivery: MO cubic phase. On the procedure: 14 Sprague Dawley rats were used in this trial. One week before each phase started, all rats were given isoflurane until unconscious. Each rat was then injected intravenously in the tail with 60 mg/kg of streptozotocin (STZ) in a sodium citrate buffer. All rats were then housed in pairs and blood glucose was monitored 3 times per day over 48 hours. The induction of diabetes was confirmed when the blood glucose level was >14 mmol/L in the morning.
The rats were then housed in pairs in two boxes. Blood collection was taken at 5-, 360-, and 1440-minutes post-injection, and the BG level tested at each time point.
Four Sprague Dawley rats were used in Phase 1 and four in Phase 2. Each was initially given isoflurane until unconscious. This was followed by preparation of the saphenous vein and the baseline basal BG was tested. […] Blood collection (10 μl) was taken at 15-, 30-, 60-, 120-, and 360-minutes post-injection. BG testing was performed immediately at each time point using an Accu Chek BG monitor and strips.
Four Sprague Dawley rats were used in Phase 1 and four in Phase 2. Each was initially given isoflurane until unconscious. This was followed by preparation of the saphenous vein and the baseline basal BG was tested. […] Blood collection (10 μl) was taken at 30-, 60-, 120-, 360-, and 465-minutes post-injection. BG testing was performed immediately at each time point using an Accu Chek BG monitor and strips. One rat didn't develop diabetes and one rat had kidney problems. In each case, the AWO (Animal Welfare Officer) was consulted and both rats were removed from the trial.
Four Sprague Dawley rats were used in this part of the trial. Each was initially given isoflurane until unconscious. This was followed by preparation of the saphenous vein and the first blood collection (10 μl) and BG testing. […] Blood collection (10 μl) was taken at 75-, 120-, 180-, 240-, 300- and 360- minutes, and BG testing was performed at each time point using an Accu Chek BG monitor and strips.
Two Sprague Dawley rats were used in this part of the trial. Each was initially given isoflurane until unconscious. This was followed by preparation of the saphenous vein and the first blood collection (10 μl) and BG testing. […] Immediately following this they were placed on a heat-mat until they regained consciousness, before being housed in pairs in boxes. Blood collection (10 μl) was taken at 105-, 135-, 165-, 210-, 345- and 460- minutes, and BG testing was performed at each time point using an Accu Chek BG monitor and strips.
Four Sprague Dawley rats were used in this part of the trial. Each was initially given isoflurane until unconscious. This was followed by preparation of the saphenous vein and the first blood collection (10 μl) and BG testing. […] Immediately following this they were placed on a heat-mat until they regained consciousness, before being housed in pairs in boxes. Blood collection (10 μl) was taken at 45-, 75-, 120-, 160-, 220-, 260-, 300- and 360- minutes, and BG testing was performed at each time point using an Accu Chek BG monitor and strips.
Two Sprague Dawley rats were used in this part of the trial. Each was initially given isoflurane until unconscious. This was followed by preparation of the saphenous vein and the first blood collection (10 μl) and BG testing. […] Immediately following this they were placed on a heat-mat until they regained consciousness, before being housed in pairs in boxes. Blood collection (10 μl) was taken at 30-, 60-, 80-, 125-, 180-, 280-, 340-, 400- and 460- minutes, and BG testing was performed at each time point using an Accu Chek BG monitor and strips.

The nature of data set [4]: Human growth hormone in blood plasma (ELISA) after SC injection or oral capsule. It counts as in vivo, Sprague Dawley rats. As to the method:
Four male Sprague Dawley rats were used as controls. Each rat was anaesthetised with isoflurane followed by preparation of the saphenous vein. The rats were given 1 mg/kg of human growth hormone via SC injection, immediately following this they were placed on a heat-mat until they regained consciousness, before being housed in pairs in boxes. Blood collection (150 μl) was taken via the saphenous vein at 0, 30-, 70-, 120-, 180-, 240- and 360-mins post-injection. The blood concentration of the protein in the blood was tested using the relevant ELISA kit for human growth hormone.
as §1, with “the human growth hormone” for “meropenem”, “120-,180-,” for “120-, 180-,”, “post-injection” for “post-injection.”
as §2, §3
(In general: In an ELISA, binding on a coated surface is turned into a signal by an enzyme label.)

[5] abbreviates: 1 IU oral, MO cubic phase in enteric capsule T=3, Phase 1, Rats 2-4.
Where [6] appears, read: oral enteric capsule vs SC, 1 mg/kg.
The mark [7] stands for this setting: oral enteric capsule, MO cubic phase, 1 mg/kg.

On to `CCCCCCCCCCCCCCCCCCOC(=O)c1ccccc1-c1c2ccc(=[N+](CC)CC)cc-2oc2cc(N(CC)CC)ccc12.[Cl-]` [Octadecyl rhodamine B chloride, octadecyl rhodamine B chloride], for which the “Diffusion Coefficient” value was 0.97 ×10^−6 cm^2 s^−1 in data set [1] (in MO QII^D bulk cubic phase (insulin: FITC labelled, 5 mg/ml)) and 0.59 ×10^−6 cm^2 s^−1 in data set [1] (in PT QII^D bulk cubic phase (insulin: FITC labelled, 5 mg/ml)).
A word on the bioavailability: it is the share of a dose that reaches the circulation, judged against a reference dose that is usually intravenous. Read a low bioavailability as little systemic uptake. `C[C@@H](O)[C@H]1C(=O)N2C(C(=O)O)=C(S[C@@H]3CN[C@H](C(=O)N(C)C)C3)[C@H](C)[C@H]12` [meropenem]: in data set [2], the bioavailability stood at 58% and the “maximum drug plasma concentration as % of that following SC injection” value was determined as 55%. In data set [2] (po), the “maximum drug concentration in blood plasma” value (shortened to “maximum drug concentration”) fell in the range of 19 to 23 ng/mL, the “time by which baseline drug concentrations are reached” value is reported as at most 180 min and the “time of maximum plasma concentration” value stood at 50 min. For the same molecule, in data set [2] (sc), the “maximum drug concentration” value was 37 to 40 ng/mL, the “time by which baseline values are reached” value is at most 240 min and the “time of maximum plasma concentration” value came out at 30 min.
As to “Actrapid insulin: fast acting insulin (Actrapid, Novo Nordisk), given SC or in MO cubic phase within enteric capsule”, the “time over which BG levels continued to decrease” value in data set [3] (Phase 1) was “approximately 110 mins”; in data set [3] (Phase 2) it was “approximately 120 mins”. In addition, the “lead time: BG levels continued to increase after oral administration” value is “approximately 60 mins” in data set [3] (1 IU oral, MO cubic phase in enteric capsule T=1, Phase 2, Rats 5-8) and 100 to 110 min in data set [3] (setting [5]). Besides, the “overall decrease in BG” value in data set [3] (1 IU oral, MO cubic phase in enteric capsule T=1, Phase 2, individual Rats 5, 6, 7, 8 in this order) was 6.2 mmol/L and 8.7 mmol/L and 11.4 mmol/L and 4.6 mmol/L; in data set [3] (1 IU oral, MO cubic phase in enteric capsule T=3, Phase 1, individual Rats 2, 3, 4 in this order) it was 3.6 mmol/L and 3.1 mmol/L and 3.4 mmol/L. Moreover, the “time period over which BG levels decreased” value in data set [3] (setting [5]) is 70 to 180 min. For the same molecule, the “time BG levels remained below 14 mmol/L” value in data set [3] (15 IU by SC injection, pre-trial period, diabetic rats) is on record as “approximately 450 minutes”. Moreover, in data set [3] (Rat 1, perforated enterically coated capsule shell with lipid cubic phase, 1 IU, Phase 1 (comparative)), the “response of blood glucose to oral administration” value was “not pronounced”. Besides, in data set [3] (SC injection, 1 IU (reference)), the “Percentage of SC injection (%)” value came out at 100%. The “Percentage of SC injection (%), efficacy of oral delivery” value in data set [3] (oral capsule T = 1 (thinner coating), 1 IU, listed as Fast Acting Insulin) is listed as 93.1%; in data set [3] (oral capsule T = 1 (thinner coating), 1 IU, listed as fast-acting insulin), 93%; in data set [3] (oral capsule T = 3 (thicker coating), 1 IU, listed as Fast Acting Insulin), 56.1%; in data set [3] (oral capsule T = 3 (thicker coating), 1 IU, listed as fast-acting insulin) it was 56%.
Take “human growth hormone: Human Growth Hormone (MyBioSource), given SC or in MO cubic phase within enteric capsule”: in data set [4] (SC injection 1 mg/kg), the “time at which total amount of protein delivered (AUC) reaches a plateau” value is given as “approximately 180 min”, the “time by which baseline drug concentrations are reached” value is listed as at most 300 min and the “time of maximum plasma concentration” value turned out to be 60 min. Moreover, the “maximum drug concentration” value in data set [4] (SC injection 1 mg/kg, range over four rats) lay in the range of 20 to 32 ng/mL. The “maximum drug concentration” value in data set [4] (oral enteric capsule (approx. 160 μm coating), MO cubic phase, 1 mg/kg, range over rats) is 19 to 24 ng/mL. Moreover, in data set [4] (setting [6]), the “maximum drug plasma concentration as % of that following SC injection” value was determined as 81% and the “overall bioavailability as % of that following SC injection” value is 87.2%. Also, in data set [4] (setting [7]), the “lag period before total protein delivered starts to increase” value worked out at 30 min, the “time at which total protein delivered (AUC) reaches a plateau” value is reported as “around 240 mins”, the “time by which baseline drug concentrations are reached” value is at most 240 min and the “time of maximum plasma concentration” value turned out to be 50 min.

(Values after patent US20240009137A1, “ORAL THERAPEUTIC DELIVERY” (ROYAL MELBOURNE INSTITUTE OF TECHNOLOGY, priority 2020, published 2024).)
